Key:
Conditions in all cases: Preemergence
[1] = tested on: bedstraw; experiment: Test B pre/postemergence bedstraw; type: in vivo, Galium aparine
In short: (§1)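 Response is a visual 0-to-10 score relative to untreated plants, where 0 means no effect and 10 means complete control, taken twelve to sixteen days after application. Treatments went onto soil at planting and onto foliage of 1- to 4-leaf plants, using a surfactant-containing non-phytotoxic solvent.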

[2] = tested on: blackgrass; experiment: Test B pre/postemergence blackgrass; type: in vivo, Alopecurus myosuroides
In short: as §1

[3] = tested on: surinam grass; experiment: Test B pre/postemergence surinam grass; type: in vivo, Brachiaria decumbens
In short: as §1

[4] = tested on: cocklebur; experiment: Test B pre/postemergence cocklebur; type: in vivo, Xanthium strumarium
In short: as §1

[5] = tested on: corn; experiment: Test B pre/postemergence corn; type: in vivo, Zea mays
In short: as §1

[6] = tested on: crabgrass; experiment: Test B pre/postemergence crabgrass; type: in vivo, Digitaria sanguinalis
In short: as §1

[7] = tested on: giant foxtail; experiment: Test B pre/postemergence giant foxtail; type: in vivo, Setaria faberii
In short: as §1

[8] = tested on: morningglory; experiment: Test B pre/postemergence morningglory; type: in vivo, Ipomoea hederacea
In short: as §1

[9] = tested on: pigweed; experiment: Test B pre/postemergence pigweed; type: in vivo, Amaranthus retroflexus
In short: as §1

[10] = tested on: rape; experiment: Test B pre/postemergence rape; type: in vivo, Brassica napus
In short: as §1

[11] = tested on: soybean; experiment: Test B pre/postemergence soybean; type: in vivo, Glycine max
In short: as §1

[12] = tested on: sugar beet; experiment: Test B pre/postemergence sugar beet; type: in vivo, Beta vulgaris
In short: as §1

[13] = tested on: velvetleaf; experiment: Test B pre/postemergence velvetleaf; type: in vivo, Abutilon theophrasti
In short: as §1

[14] = tested on: wheat; experiment: Test B pre/postemergence wheat; type: in vivo, Triticum aestivum
In short: as §1

[15] = tested on: wild oat; experiment: Test B pre/postemergence wild oat; type: in vivo, Avena fatua
In short: as §1

[16] = tested on: purple nutsedge; experiment: Test B pre/postemergence purple nutsedge; type: in vivo, Cyperus rotundus
In short: as §1

[17] = Rate 125 g/ha, scale of 0 to 10 where 0 is no effect and 10 is complete control
[18] = Rate 250 g/ha, scale 0 (no effect) to 10 (complete control)
[19] = Rate 500 g/ha, scale 0 to 10 (0 no effect, 10 complete control)
[20] = Rate 1000 g/ha, scale 0 to 10 (0 no effect, 10 complete control)
[21] = Rate 62 g/ha, scale of 0 to 10 where 0 is no effect and 10 is complete control
[22] = Rate 31 g/ha, visual rating, scale 0 to 10 (0 no effect, 10 complete control)

COC(=O)C(c1ccccc1)n1c(=O)on(C(=O)N(c2ccccc2)C(C)C)c1=O (stereo not drawn) [Compound 723]
10: Giant foxtail plant response rating [7, 19] | Plant response rating, Giant foxtail [7, 20]
5: Plant response rating, Redroot pigweed [9, 20]
7: Plant response rating, Giant foxtail [7, 17]
8: Plant response rating, Wild oats [15, 20]
0: Plant response rating, Bedstraw [1, 17] | Bedstraw plant response rating [1, 18] | Bedstraw plant response rating [1, 19] | Plant response rating, Bedstraw [1, 20] | Plant response rating, Blackgrass [2, 17] | Blackgrass plant response rating [2, 18] | Plant response rating, B. signalgrass [3, 17] | Plant response rating, Cocklebur [4, 17] | Cocklebur plant response rating [4, 18] | Cocklebur plant response rating [4, 19] | Plant response rating, Cocklebur [4, 20] | Plant response rating, Corn [5, 17] | Corn plant response rating [5, 18] | Corn plant response rating [5, 19] | Plant response rating, Corn [5, 20] | Plant response rating, Morningglory [8, 17] | Morningglory plant response rating [8, 18] | Morningglory plant response rating [8, 19] | Plant response rating, Morningglory [8, 20] | Plant response rating, Redroot pigweed [9, 17] | Redroot pigweed plant response rating [9, 18] | Redroot pigweed plant response rating [9, 19] | Plant response rating, Rape [10, 17] | Rape plant response rating [10, 18] | Rape plant response rating [10, 19] | Plant response rating, Soybean [11, 17] | Soybean plant response rating [11, 18] | Soybean plant response rating [11, 19] | Plant response rating, Soybean [11, 20] | Plant response rating, Sugarbeets [12, 17] | Sugarbeets plant response rating [12, 18] | Sugarbeets plant response rating [12, 19] | Plant response rating, Sugarbeets [12, 20] | Plant response rating, Velvetleaf [13, 17] | Velvetleaf plant response rating [13, 18] | Velvetleaf plant response rating [13, 19] | Plant response rating, Velvetleaf [13, 20] | Plant response rating, Wheat [14, 17] | Wheat plant response rating [14, 18] | Wheat plant response rating [14, 19] | Plant response rating, Wheat [14, 20] | Plant response rating, Wild oats [15, 17] | Wild oats plant response rating [15, 18] | Wild oats plant response rating [15, 19] | Plant response rating, Nutsedge [16, 17] | Nutsedge plant response rating [16, 18] | Plant response rating, Nutsedge [16, 20]
2: Blackgrass plant response rating [2, 19] | B. signalgrass plant response rating [3, 18] | B. signalgrass plant response rating [3, 19] | Plant response rating, Crabgrass [6, 17] | Crabgrass plant response rating [6, 18] | Plant response rating, Rape [10, 20]
9: Crabgrass plant response rating [6, 19] | Plant response rating, Crabgrass [6, 20] | Giant foxtail plant response rating [7, 18]
6: Plant response rating, Blackgrass [2, 20] | Plant response rating, B. signalgrass [3, 20]

COC(CCl)n1c(=O)on(C(=O)N(c2ccc(Cl)cc2)C(C)C)c1=O (stereo not drawn) [Compound 725]
7: Blackgrass plant response rating [2, 18] | Blackgrass plant response rating [2, 19] | Giant foxtail plant response rating [7, 21]
2: Blackgrass plant response rating [2, 21] | Sugarbeets plant response rating [12, 19] | Plant response rating, Wild oats [15, 17]
4: Plant response rating, Blackgrass [2, 17] | B. signalgrass plant response rating [3, 18] | B. signalgrass plant response rating [3, 19] | Wild oats plant response rating [15, 18]
1: Morningglory plant response rating [8, 21] | Plant response rating, Morningglory [8, 17] | Morningglory plant response rating [8, 18]
10: Giant foxtail plant response rating [7, 18] | Giant foxtail plant response rating [7, 19]
3: Plant response rating, B. signalgrass [3, 17] | Morningglory plant response rating [8, 19] | Redroot pigweed plant response rating [9, 19]
8: Crabgrass plant response rating [6, 18] | Crabgrass plant response rating [6, 19] | Plant response rating, Giant foxtail [7, 17]
0: Bedstraw plant response rating [1, 21] | Plant response rating, Bedstraw [1, 17] | Bedstraw plant response rating [1, 18] | Bedstraw plant response rating [1, 19] | B. signalgrass plant response rating [3, 21] | Cocklebur plant response rating [4, 21] | Plant response rating, Cocklebur [4, 17] | Cocklebur plant response rating [4, 18] | Cocklebur plant response rating [4, 19] | Corn plant response rating [5, 21] | Plant response rating, Corn [5, 17] | Corn plant response rating [5, 18] | Corn plant response rating [5, 19] | Redroot pigweed plant response rating [9, 21] | Plant response rating, Redroot pigweed [9, 17] | Redroot pigweed plant response rating [9, 18] | Rape plant response rating [10, 21] | Plant response rating, Rape [10, 17] | Rape plant response rating [10, 18] | Rape plant response rating [10, 19] | Soybean plant response rating [11, 21] | Plant response rating, Soybean [11, 17] | Soybean plant response rating [11, 18] | Soybean plant response rating [11, 19] | Sugarbeets plant response rating [12, 21] | Plant response rating, Sugarbeets [12, 17] | Sugarbeets plant response rating [12, 18] | Velvetleaf plant response rating [13, 21] | Plant response rating, Velvetleaf [13, 17] | Velvetleaf plant response rating [13, 18] | Velvetleaf plant response rating [13, 19] | Wheat plant response rating [14, 21] | Plant response rating, Wheat [14, 17] | Wheat plant response rating [14, 18] | Wheat plant response rating [14, 19] | Wild oats plant response rating [15, 21] | Nutsedge plant response rating [16, 21] | Plant response rating, Nutsedge [16, 17] | Nutsedge plant response rating [16, 19]
6: Crabgrass plant response rating [6, 21] | Plant response rating, Crabgrass [6, 17] | Wild oats plant response rating [15, 19]

CC(=O)NCCn1c(=O)on(C(=O)N(c2ccc(F)cc2)C(C)C)c1=O [Compound 727]
7: Plant response rating, Blackgrass [2, 17] | B. signalgrass plant response rating [3, 18] | Giant foxtail plant response rating [7, 21] | Plant response rating, Giant foxtail [7, 17]
8: Blackgrass plant response rating [2, 18] | Plant response rating, Crabgrass [6, 17]
5: Giant foxtail plant response rating [7, 22] | Plant response rating, Redroot pigweed [9, 17] | Redroot pigweed plant response rating [9, 18]
10: Giant foxtail plant response rating [7, 18]
3: Crabgrass plant response rating [6, 22] | Crabgrass plant response rating [6, 21] | Plant response rating, Wild oats [15, 17] | Wild oats plant response rating [15, 18]
0: Bedstraw plant response rating [1, 22] | Bedstraw plant response rating [1, 21] | Plant response rating, Bedstraw [1, 17] | Bedstraw plant response rating [1, 18] | Blackgrass plant response rating [2, 22] | Blackgrass plant response rating [2, 21] | B. signalgrass plant response rating [3, 22] | B. signalgrass plant response rating [3, 21] | Cocklebur plant response rating [4, 22] | Cocklebur plant response rating [4, 21] | Plant response rating, Cocklebur [4, 17] | Cocklebur plant response rating [4, 18] | Corn plant response rating [5, 22] | Corn plant response rating [5, 21] | Plant response rating, Corn [5, 17] | Corn plant response rating [5, 18] | Morningglory plant response rating [8, 21] | Plant response rating, Morningglory [8, 17] | Morningglory plant response rating [8, 18] | Redroot pigweed plant response rating [9, 21] | Rape plant response rating [10, 21] | Plant response rating, Rape [10, 17] | Soybean plant response rating [11, 21] | Plant response rating, Soybean [11, 17] | Soybean plant response rating [11, 18] | Sugarbeets plant response rating [12, 21] | Plant response rating, Sugarbeets [12, 17] | Sugarbeets plant response rating [12, 18] | Velvetleaf plant response rating [13, 21] | Plant response rating, Velvetleaf [13, 17] | Velvetleaf plant response rating [13, 18] | Wheat plant response rating [14, 21] | Plant response rating, Wheat [14, 17] | Wheat plant response rating [14, 18] | Wild oats plant response rating [15, 21] | Plant response rating, Nutsedge [16, 17] | Nutsedge plant response rating [16, 18]
6: Plant response rating, B. signalgrass [3, 17]
9: Crabgrass plant response rating [6, 18]
1: Rape plant response rating [10, 18]

From patent publication US6737383B1, “Herbicidal oxadiazolidines” (priority 1999, dated 2004)
